Data from patent US10131652B2, “Pyrimidinyloxy benzene derivatives as herbicides” (E. I. DU PONT DE NEMOURS AND COMPANY, priority 2014, dated 2018).
Like-named read-outs stand apart in the source and are kept apart here.

Columns and labels:
Assay in all cases: Test F pre-/postemergence plant response
Type in all cases: in vivo
[1] = test system: surinam grass (Brachiaria decumbens); settings: Urochloa decumbens, pre-emergence, scale 0 to 100, read-out: Plant response rating, Surinam Grass
Summary of the method: (§1)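 Two application timings were run side by side: soil surface treatment of freshly planted seed in silt loam, and foliar treatment of seedlings 2 to 18 cm high. Plants stayed in the greenhouse 14 to 21 days before visual 0–100 injury scoring against controls.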

[2] = test system: wild poinsettia (Euphorbia heterophylla); settings: Euphorbia heterophylla, scale 0 to 100, read-out: Plant response rating, Poinsettia, Wild
Summary of the method: as §1

[3] = test system: yellow nutsedge (Cyperus esculentus); settings: Cyperus, pre-emergence, scale 0 to 100, read-out: Plant response rating, Nutsedge, Yellow
Summary of the method: as §1

[4] = test system: waterhemp (common waterhemp, Amaranthus rudis); settings: Amaranthus tuberculatus, scale 0 to 100, read-out: Plant response rating, Waterhemp
Summary of the method: as §1

[5] = test system: johnsongrass (Sorghum halepense); settings: Sorghum halepense, pre-emergence, scale 0 to 100, read-out: Plant response rating, Johnsongrass
Summary of the method: as §1

[6] = test system: large (Lg) crabgrass (Digitaria sanguinalis); settings: Digitaria sanguinalis, pre-emergence, scale 0 to 100, read-out: Plant response rating, Crabgrass, Large
Summary of the method: as §1

[7] = test system: sandbur (southern sandbur, Cenchrus echinatus); settings: Cenchrus echinatus, scale 0 to 100, read-out: Plant response rating, Sandbur
Summary of the method: as §1

[8] = test system: soybean (Glycine max); settings: Glycine max, scale 0 to 100, read-out: Plant response rating, Soybean
Summary of the method: as §1

[9] = test system: arrowleaf sida (Sida rhombifolia); settings: Sida rhombifolia, scale 0 to 100, read-out: Plant response rating, Arrowleaf Sida
Summary of the method: as §1

[10] = test system: goosegrass (Eleusine indica); settings: Eleusine indica, pre-emergence, scale 0 to 100, read-out: Plant response rating, Goosegrass
Summary of the method: as §1

[11] = test system: velvetleaf (Abutilon theophrasti); settings: Abutilon theophrasti, pre-emergence, scale 0 to 100, read-out: Plant response rating, Velvetleaf
Summary of the method: as §1

[12] = test system: dayflower (Virginia (VA) dayflower, Commelina virginica); settings: Commelina virginica, scale 0 to 100, read-out: Plant response rating, Dayflower, VA
Summary of the method: as §1

[13] = test system: barnyardgrass (Echinochloa crus-galli); settings: Echinochloa crus-galli, scale 0 to 100, read-out: Plant response rating, Barnyardgrass
Summary of the method: as §1

[14] = test system: hairy beggarticks (Bidens pilosa); settings: Bidens pilosa, scale 0 to 100, read-out: Plant response rating, Beggarticks
Summary of the method: as §1

[15] = test system: field bindweed (Convolvulus arvensis); settings: Convolvulus arvensis, scale 0 to 100, read-out: Plant response rating, Field Bindweed
Summary of the method: as §1

[16] = test system: giant foxtail (Setaria faberii); settings: Setaria faberi, pre-emergence, scale 0 to 100, read-out: Plant response rating, Foxtail, Giant
Summary of the method: as §1

[17] = post-emergence, 8 g ai/ha Postemergence
[18] = post-emergence, 16 g ai/ha Postemergence
[19] = post-emergence, 31 g ai/ha Postemergence
[20] = post-emergence, 62 g ai/ha Postemergence
[21] = post-emergence, 125 g ai/ha Postemergence
[22] = pre-emergence, 8 g ai/ha Preemergence
[23] = pre-emergence, 16 g ai/ha Preemergence
[24] = pre-emergence, 31 g ai/ha Preemergence
[25] = pre-emergence, 125 g ai/ha Preemergence
[26] = pre-emergence, 62 g ai/ha Preemergence

FC(F)c1cc(-c2ccccc2Oc2ncc(Br)cn2)no1 [Compound 62, 5-bromo-2-[2-[5-(difluoromethyl)-3-isoxazolyl]phenoxy]pyrimidine]
pest or weed control at 8 g/ha ([1]; 8 g ai/ha Preemergence): 0% | pest or weed control at 16 g/ha ([1]; 16 g ai/ha Preemergence): 0% | pest or weed control at 31 g/ha ([1]; 31 g ai/ha Preemergence): 15% | pest or weed control at 125 g/ha ([1]; 125 g ai/ha Preemergence): 10% | pest or weed control at 62 g/ha ([1]; Preemergence): 15% | pest or weed control at 8 g/ha [2, 17]: 25% | pest or weed control at 16 g/ha [2, 18]: 35% | pest or weed control at 31 g/ha [2, 19]: 40% | pest or weed control at 62 g/ha [2, 20]: 50% | pest or weed control at 125 g/ha [2, 21]: 50% | pest or weed control at 8 g/ha [2, 22]: 0% | pest or weed control at 16 g/ha [2, 23]: 0% | pest or weed control at 31 g/ha [2, 24]: 30% | pest or weed control at 125 g/ha [2, 25]: 35% | pest or weed control at 62 g/ha ([2]; pre-emergence, Preemergence): 25% | pest or weed control at 8 g/ha ([3]; 8 g ai/ha Preemergence): 0% | pest or weed control at 16 g/ha ([3]; 16 g ai/ha Preemergence): 0% | pest or weed control at 31 g/ha ([3]; 31 g ai/ha Preemergence): 0% | pest or weed control at 125 g/ha ([3]; 125 g ai/ha Preemergence): 0% | pest or weed control at 62 g/ha ([3]; Preemergence): 0% | pest or weed control at 8 g/ha [4, 17]: 80% | pest or weed control at 16 g/ha [4, 18]: 90% | pest or weed control at 31 g/ha [4, 19]: 100% | pest or weed control at 62 g/ha [4, 20]: 100% | pest or weed control at 125 g/ha [4, 21]: 100% | pest or weed control at 8 g/ha [4, 22]: 80% | pest or weed control at 16 g/ha [4, 23]: 85% | pest or weed control at 31 g/ha [4, 24]: 98% | pest or weed control at 125 g/ha [4, 25]: 100% | pest or weed control at 62 g/ha ([4]; pre-emergence, Preemergence): 100% | pest or weed control at 8 g/ha ([5]; 8 g ai/ha Preemergence): 0% | pest or weed control at 16 g/ha ([5]; 16 g ai/ha Preemergence): 0% | pest or weed control at 31 g/ha ([5]; 31 g ai/ha Preemergence): 20% | pest or weed control at 125 g/ha ([5]; 125 g ai/ha Preemergence): 40% | pest or weed control at 62 g/ha ([5]; Preemergence): 35% | pest or weed control at 8 g/ha ([6]; 8 g ai/ha Preemergence): 0% | pest or weed control at 16 g/ha ([6]; 16 g ai/ha Preemergence): 0% | pest or weed control at 31 g/ha ([6]; 31 g ai/ha Preemergence): 25% | pest or weed control at 62 g/ha ([6]; 62 g ai/ha Preemergence): 70% | pest or weed control at 125 g/ha ([6]; 125 g ai/ha Preemergence): 98% | pest or weed control at 8 g/ha [7, 17]: 0% | pest or weed control at 16 g/ha [7, 18]: 0% | pest or weed control at 31 g/ha [7, 19]: 0% | pest or weed control at 62 g/ha [7, 20]: 0% | pest or weed control at 125 g/ha [7, 21]: 0% | pest or weed control at 8 g/ha [7, 22]: 0% | pest or weed control at 16 g/ha [7, 23]: 0% | pest or weed control at 31 g/ha [7, 24]: 0% | pest or weed control at 125 g/ha [7, 25]: 35% | pest or weed control at 62 g/ha ([7]; pre-emergence, Preemergence): 0% | plant injury at 8 g/ha [8, 17]: 10% | plant injury at 16 g/ha [8, 18]: 20% | plant injury at 31 g/ha [8, 19]: 40% | plant injury at 62 g/ha [8, 20]: 65% | plant injury at 125 g/ha [8, 21]: 85% | plant injury at 8 g/ha [8, 22]: 0% | plant injury at 16 g/ha [8, 23]: 0% | plant injury at 31 g/ha [8, 24]: 0% | plant injury at 125 g/ha [8, 25]: 40% | plant injury at 62 g/ha ([8]; pre-emergence, Preemergence): 10% | pest or weed control at 8 g/ha [9, 17]: 65% | pest or weed control at 16 g/ha [9, 18]: 80% | pest or weed control at 31 g/ha [9, 19]: 95% | pest or weed control at 62 g/ha [9, 20]: 98% | pest or weed control at 125 g/ha [9, 21]: 98% | pest or weed control at 8 g/ha [9, 22]: 0% | pest or weed control at 16 g/ha [9, 23]: 20% | pest or weed control at 31 g/ha [9, 24]: 70% | pest or weed control at 62 g/ha [9, 26]: 95% | pest or weed control at 125 g/ha [9, 25]: 100% | pest or weed control at 8 g/ha ([10]; 8 g ai/ha Preemergence): 0% | pest or weed control at 16 g/ha ([10]; 16 g ai/ha Preemergence): 0% | pest or weed control at 31 g/ha ([10]; 31 g ai/ha Preemergence): 0% | pest or weed control at 125 g/ha ([10]; 125 g ai/ha Preemergence): 75% | pest or weed control at 62 g/ha ([10]; Preemergence): 5% | pest or weed control at 8 g/ha ([11]; 8 g ai/ha Preemergence): 0% | pest or weed control at 16 g/ha ([11]; 16 g ai/ha Preemergence): 35% | pest or weed control at 31 g/ha ([11]; 31 g ai/ha Preemergence): 75% | pest or weed control at 125 g/ha ([11]; 125 g ai/ha Preemergence): 100% | pest or weed control at 62 g/ha ([11]; Preemergence): 100% | pest or weed control at 8 g/ha [12, 17]: 0% | pest or weed control at 16 g/ha [12, 18]: 0% | pest or weed control at 31 g/ha [12, 19]: 5% | pest or weed control at 62 g/ha [12, 20]: 25% | pest or weed control at 125 g/ha [12, 21]: 65% | pest or weed control at 8 g/ha [12, 22]: 0% | pest or weed control at 16 g/ha [12, 23]: 0% | pest or weed control at 31 g/ha [12, 24]: 0% | pest or weed control at 62 g/ha [12, 26]: 30% | pest or weed control at 125 g/ha [12, 25]: 80% | pest or weed control at 8 g/ha [13, 17]: 10% | pest or weed control at 16 g/ha [13, 18]: 15% | pest or weed control at 31 g/ha [13, 19]: 20% | pest or weed control at 62 g/ha [13, 20]: 20% | pest or weed control at 125 g/ha [13, 21]: 20% | pest or weed control at 8 g/ha [13, 22]: 0% | pest or weed control at 16 g/ha [13, 23]: 0% | pest or weed control at 31 g/ha [13, 24]: 0% | pest or weed control at 62 g/ha [13, 26]: 0% | pest or weed control at 125 g/ha [13, 25]: 25% | pest or weed control at 8 g/ha [14, 17]: 5% | pest or weed control at 16 g/ha [14, 18]: 5% | pest or weed control at 31 g/ha [14, 19]: 10% | pest or weed control at 62 g/ha [14, 20]: 50% | pest or weed control at 125 g/ha [14, 21]: 80% | pest or weed control at 8 g/ha [14, 22]: 0% | pest or weed control at 16 g/ha [14, 23]: 0% | pest or weed control at 31 g/ha [14, 24]: 0% | pest or weed control at 62 g/ha [14, 26]: 0% | pest or weed control at 125 g/ha [14, 25]: 0% | pest or weed control at 8 g/ha [15, 17]: 40% | pest or weed control at 16 g/ha [15, 18]: 40% | pest or weed control at 31 g/ha [15, 19]: 35% | pest or weed control at 62 g/ha [15, 20]: 50% | pest or weed control at 125 g/ha [15, 21]: 75% | pest or weed control at 8 g/ha [15, 22]: 0% | pest or weed control at 16 g/ha [15, 23]: 0% | pest or weed control at 31 g/ha [15, 24]: 0% | pest or weed control at 62 g/ha [15, 26]: 0% | pest or weed control at 125 g/ha [15, 25]: 0% | pest or weed control at 8 g/ha ([16]; 8 g ai/ha Preemergence): 0% | pest or weed control at 16 g/ha ([16]; 16 g ai/ha Preemergence): 15% | pest or weed control at 31 g/ha ([16]; 31 g ai/ha Preemergence): 35% | pest or weed control at 62 g/ha ([16]; 62 g ai/ha Preemergence): 65% | pest or weed control at 125 g/ha ([16]; 125 g ai/ha Preemergence): 75%
